This note sets out measurements from PubChem BioAssay AID489026 (Sanford-Burnham Center for Chemical Genomics, 2010).

The test system of the assay is HEK-293T cytotoxicity, luminescence viability. Description: cytotoxicity in HEK-293T cells, dose response, cytotoxicity control, luminescence, T-cell screen hits (AID 489026).

Molecules are shown by their SMILES. Activity calls are given as the source filed them. How the calls were made is not given here. Where only a bound is given, the exact number is not on record here.

As to `C[C@@H]1O[C@@H](O[C@H]2C[C@@H](O)[C@]3(CO)[C@@H]4C(CC[C@]3(O)C2)[C@@]2(O)CC[C@H](C3COC(=O)C3)[C@@]2(C)C[C@H]4O)[C@H](O)[C@H](O)[C@H]1O` (some centres not stated), the IC50 is > 80 µM (inactive).

For the compound `C=C(C=O)C[C@@H]1C[C@H](O)C2OC3C[C@]4(C)OC5/C=C\CC6OC7C(CC=CCC6OC5CCCC4OC3CC2O1)OC1CC2OC3CC(=O)OC3C[C@@H](C)C[C@@]2(C)OC1C[C@@H]7C` (some centres not stated), the IC50 was 39.8 µM (inactive).
